The values below come from patent US9556192B2, “Functionalized 9-bromo-camptothecin derivatives” (NERVIANO MEDICAL SCIENCES S.R.L., priority 2012, dated 2017).

Series [1] has as its system A2780 human ovarian cancer cells. Nature of the series: In vitro cell proliferation assay (CellTiter-Glo). In kind it is cell-based. To be noted: 72 h. Here is the method:
In Vitro Cell Proliferation Assay
A2780 human ovarian and MCF7 human breast cancer cells (1250 cells/well) were seeded in white 384 well-plates in complete medium (RPMI1640 or EMEM plus 10% Fetal bovine serum) and treated with compounds dissolved in 0.1% DMSO, 24 h after seeding. The cells were incubated at 37° C. and 5% CO2 and after 72 h the plates were processed using CellTiter-Glo assay (Promega) following the manufacturers instructions.
CellTiter-Glo is a homogenous method based on the quantification of the ATP present, an indicator of metabolically active cells. ATP is quantified using a system based on luciferase and D-luciferin resulting into light generation. The luminescent signal is proportional to the number of cells present in culture.
Briefly, 25 μL/well of reagent solution are added to each well and after 5 min shaking microplates are read by a luminometer. The luminescent signal is proportional to the number of cells present in culture.
(Cellular ATP, detected with luciferase, serves as a proxy for viable cell number.)

Series [2] in a line: Elimination of self-immolative group at pH 7.4 (HPLC/MS). It is filed as physicochemical. Particulars: pH 7.4 (Tris-HCl buffer), room temperature, 1 h. Here is the method: (§1) The conjugate A1 was incubated with 0.2 units of cathepsin B in sodium acetate buffer pH 5.5 and 1 mM Cys for 2 h at 40° C. Then pH was adjusted to 7.4 by addition of Tris-HCl buffer and maintained at room temperature for 1 h.

Series [3] addresses cathepsin B (Homo sapiens, UniProt P07858). The series can be described thus: Release of a drug moiety from conjugate in presence of cathepsin B. Particulars: 0.2 units cathepsin B, sodium acetate buffer pH 5.5, 1 mM Cys, 2 h at 40° C. In kind it is biochemical. Here is the method: As an example, that is not intended to limit the scope of the invention, the release of a compound of formula (I) from the conjugate was performed in presence of cathepsin as reported below.
as §1

[4] abbreviates: read-out: IC50 value in A2780 human ovarian cancer cells.

Where a name gives a salt, the structure may show the parent alone. Read-outs that look alike come from different tables or passages of the source. Where only a bound is given, the exact number is not on record here.

The term IC50 denotes the point on the concentration scale where inhibition reaches its midpoint. For `CC[C@@]1(O)C(=O)OCc2c1cc1n(c2=O)Cc2cc3c(Br)cccc3nc2-1` [9-bromo-camptothecin], the IC50 in series [1] (read-out: A2780 (IC50 nM)) was 1.62 nM.
Turning to `CC[C@@]1(OC(=O)CN)C(=O)OCc2c1cc1n(c2=O)Cc2cc3c(Br)cccc3nc2-1` [Comp. 1, (4S)-10-bromo-4-ethyl-3,14-dioxo-3,4,12,14-tetrahydro-1H-pyrano[3′,4′6,7]indolizino[1,2-b]quinolin-4-yl glycinate hydrochloride], the IC50 in series [1] (read-out: A2780 (IC50 nM)) is 0.97 nM; in series [1] (setting [4]), under 10 nM.
For `CC[C@@]1(OC(=O)CNC(=O)[C@H](CC(C)C)NC(=O)[C@@H](N)Cc2ccccc2)C(=O)OCc2c1cc1n(c2=O)Cc2cc3c(Br)cccc3nc2-1` [Comp. 2, (4S)-10-bromo-4-ethyl-3,14-dioxo-3,4,12,14-tetrahydro-1H-pyrano[3′,4′:6,7]indolizino[1,2-b]quinolin-4-yl L -phenylalanyl-L-leucylglycinate] the same measures were 1.56 nM and under 10 nM.
Take `CC[C@@]1(OC(=O)CC2(CN)CCCCC2)C(=O)OCc2c1cc1n(c2=O)Cc2cc3c(Br)cccc3nc2-1.Cl` [Comp. 11]: the “Release of 9-bromo-camptothecin by elimination of the self-immolative group W” value in series [2] was “elimination of the self-immolative group W”.
For the compound `CC[C@@]1(OC(=O)CC2(CNC(=O)[C@@H](CCCNC(N)=O)NC(=O)[C@@H](NC(=O)CCCCCN3C(=O)CC(N[C@H](C=O)CS)C3=O)C(C)C)CCCCC2)C(=O)OCc2c1cc1n(c2=O)Cc2cc3c(Br)cccc3nc2-1` (stereo partly shown) [conjugate A1], the “Cleavage of the Z peptidic linker of the conjugate with release of Comp. 11” value in series [3] was “Partial disappearance”.
